From ChEMBL document CHEMBL1135808, “A new type of mixed anhydride and its applications to the synthesis of 7-substituted 8-chloro-5,5-dioxoimidazo[1,2-b][1,4,2]benzodithiazines with in vitro antitumor activity” (2002)

tested on: T47D; assay: In vitro total growth inhibition against breast cancer […] cell lines was reported.; type: functional; conditions: Homo sapiens, read-out: Log TGI (converted)

Compound | TGI [µM]
O=C(Nc1cccc2nsnc12)c1cc2c(cc1Cl)Sc1nccn1S2(=O)=O | 5.75

tested on: SF-268; assay: In vitro growth inhibition against CNS cancer SF-268 cell line was reported.; type: functional; conditions: Homo sapiens

Compound | GI50 [µM]
O=C(Nc1cccc2nsnc12)c1cc2c(cc1Cl)Sc1nccn1S2(=O)=O | 3.39

tested on: PC-3; assay: In vitro growth inhibition against prostate cancer PC-3 cell line was reported.; type: functional; conditions: Homo sapiens

Compound | GI50 [µM]
O=C(Nc1cccc2nsnc12)c1cc2c(cc1Cl)Sc1nccn1S2(=O)=O | 1.91

tested on: MDA-MB-435; assay: In vitro total growth inhibition against breast cancer MDA-MB-435 cell lines was reported.; conditions: Homo sapiens, read-out: Log TGI (converted)

Compound | TGI [µM]
O=C(Nc1cccc2nsnc12)c1cc2c(cc1Cl)Sc1nccn1S2(=O)=O | 49

tested on: SR; assay: In vitro total growth inhibition against leukemia SR cell lines was reported.; type: functional; conditions: Homo sapiens, read-out: Log TGI (converted)

Compound | TGI [µM]
O=C(Nc1cccc2nsnc12)c1cc2c(cc1Cl)Sc1nccn1S2(=O)=O | 4.79

tested on: HL-60; assay: In vitro growth inhibition against leukemia HL-60(TB) cell line was reported.; type: functional; conditions: Homo sapiens

Compound | GI50 [µM]
O=C(Nc1cccc2nsnc12)c1cc2c(cc1Cl)Sc1nccn1S2(=O)=O | 1.86

tested on: NCI/ADR-RES; assay: In vitro total growth inhibition against breast cancer NCI/ADR-RES cell lines was reported.; type: functional; conditions: Homo sapiens, read-out: Log TGI (converted)

Compound | TGI [µM]
O=C(Nc1cccc2nsnc12)c1cc2c(cc1Cl)Sc1nccn1S2(=O)=O | 38.9

tested on: A549; assay: In vitro total growth inhibition against non-small-cell lung cancer A 549/ATCC cell lines was reported.; type: functional; conditions: Homo sapiens, read-out: Log TGI (converted)

Compound | TGI [µM]
O=C(Nc1cccc2nsnc12)c1cc2c(cc1Cl)Sc1nccn1S2(=O)=O | 38.9

tested on: OVCAR-4; assay: In vitro growth inhibition against ovarian cancer OVCAR-4 cell line was reported.; type: functional; conditions: Homo sapiens

Compound | GI50 [µM]
O=C(Nc1cccc2nsnc12)c1cc2c(cc1Cl)Sc1nccn1S2(=O)=O | 2.75

tested on: SW-620; assay: In vitro growth inhibition against colon cancer SW620 cell line was reported.; type: functional; conditions: Homo sapiens

Compound | GI50 [µM]
O=C(Nc1cccc2nsnc12)c1cc2c(cc1Cl)Sc1nccn1S2(=O)=O | 12

tested on: U-251; assay: In vitro total growth inhibition against CNS cancer U251 cell lines was reported.; type: functional; conditions: Homo sapiens, read-out: Log TGI (converted)

Compound | TGI [µM]
O=C(Nc1cccc2nsnc12)c1cc2c(cc1Cl)Sc1nccn1S2(=O)=O | 15.8

tested on: NCI-H226; assay: In vitro total growth inhibition against non-small-cell lung cancer NCI-H226 cell lines was reported.; type: functional; conditions: Homo sapiens, read-out: Log TGI (converted)

Compound | TGI [µM]
O=C(Nc1cccc2nsnc12)c1cc2c(cc1Cl)Sc1nccn1S2(=O)=O | 33.1

tested on: 786-0; assay: Log of molar concentration leading to 50% cell death against renal cancer […] cell line was reported; type: functional; conditions: Homo sapiens, read-out: Log LC50 (the source's name) (converted)

Compound | CC50 [µM]
O=C(Nc1cccc2nsnc12)c1cc2c(cc1Cl)Sc1nccn1S2(=O)=O | 55

tested on: A498; assay: In vitro growth inhibition against renal cancer A498 cell line was reported.; type: functional; conditions: Homo sapiens

Compound | GI50 [µM]
O=C(Nc1cccc2nsnc12)c1cc2c(cc1Cl)Sc1nccn1S2(=O)=O | 13.5

tested on: M14; assay: In vitro growth inhibition against melanoma M14 cell line was reported.; type: functional; conditions: Homo sapiens

Compound | GI50 [µM]
O=C(Nc1cccc2nsnc12)c1cc2c(cc1Cl)Sc1nccn1S2(=O)=O | 17.4

tested on: IGROV-1; assay: In vitro growth inhibition against ovarian cancer IGROV1 cell line was reported.; type: functional; conditions: Homo sapiens

Compound | GI50 [µM]
O=C(Nc1cccc2nsnc12)c1cc2c(cc1Cl)Sc1nccn1S2(=O)=O | 5.5

tested on: HCT-116; assay: In vitro total growth inhibition against colon cancer HCT116 cell lines was reported.; type: functional; conditions: Homo sapiens, read-out: Log TGI (converted)

Compound | TGI [µM]
O=C(Nc1cccc2nsnc12)c1cc2c(cc1Cl)Sc1nccn1S2(=O)=O | 5.37

tested on: KM12; assay: In vitro growth inhibition against colon cancer KM12 cell line was reported.; type: functional; conditions: Homo sapiens

Compound | GI50 [µM]
O=C(Nc1cccc2nsnc12)c1cc2c(cc1Cl)Sc1nccn1S2(=O)=O | 2.04

tested on: MDA-MB-435; assay: In vitro growth inhibition against breast cancer MDA-MB-435 cell line was reported.; conditions: Homo sapiens

Compound | GI50 [µM]
O=C(Nc1cccc2nsnc12)c1cc2c(cc1Cl)Sc1nccn1S2(=O)=O | 8.13

tested on: NCI-H322M; assay: Log of molar concentration leading to 50% cell death against non-small-cell lung cancer NCI-H322M cell line was reported; type: functional; conditions: Homo sapiens, read-out: Log LC50 (the source's name) (converted)

Compound | CC50 [µM]
O=C(Nc1cccc2nsnc12)c1cc2c(cc1Cl)Sc1nccn1S2(=O)=O | 5.75

tested on: MDA-MB-231; assay: In vitro growth inhibition against breast cancer MDA-MB-231/ATCC cell line was reported.; type: functional; conditions: Homo sapiens

Compound | GI50 [µM]
O=C(Nc1cccc2nsnc12)c1cc2c(cc1Cl)Sc1nccn1S2(=O)=O | 6.03

tested on: OVCAR-4; assay: In vitro total growth inhibition against ovarian cancer OVCAR-4 cell lines was reported.; type: functional; conditions: Homo sapiens, read-out: Log TGI (converted)

Compound | TGI [µM]
O=C(Nc1cccc2nsnc12)c1cc2c(cc1Cl)Sc1nccn1S2(=O)=O | 10.2

tested on: EKVX; assay: Log of molar concentration leading to 50% cell death against non-small-cell lung cancer EKVX cell line was reported; type: functional; conditions: Homo sapiens, read-out: Log LC50 (the source's name) (converted)

Compound | CC50 [µM]
O=C(Nc1cccc2nsnc12)c1cc2c(cc1Cl)Sc1nccn1S2(=O)=O | 9.77

tested on: PC-3; assay: Log of molar concentration leading to 50% cell death against prostate cancer PC-3 cell line was reported; type: functional; conditions: Homo sapiens, read-out: Log LC50 (the source's name) (converted)

Compound | CC50 [µM]
O=C(Nc1cccc2nsnc12)c1cc2c(cc1Cl)Sc1nccn1S2(=O)=O | 6.46

tested on: RXF 393; assay: In vitro total growth inhibition against renal cancer RXF 393 cell lines was reported.; type: functional; conditions: Homo sapiens, read-out: Log TGI (converted)

Compound | TGI [µM]
O=C(Nc1cccc2nsnc12)c1cc2c(cc1Cl)Sc1nccn1S2(=O)=O | 28.8

tested on: SF-295; assay: In vitro growth inhibition against CNS cancer SF-295 cell line was reported.; type: functional; conditions: Homo sapiens

Compound | GI50 [µM]
O=C(Nc1cccc2nsnc12)c1cc2c(cc1Cl)Sc1nccn1S2(=O)=O | 11.2

tested on: MOLT-4; assay: In vitro total growth inhibition against leukemia MOLT-4 cell lines was reported.; type: functional; conditions: Homo sapiens, read-out: Log TGI (converted)

Compound | TGI [µM]
O=C(Nc1cccc2nsnc12)c1cc2c(cc1Cl)Sc1nccn1S2(=O)=O | 9.33

tested on: TK-10; assay: Log of molar concentration leading to 50% cell death against renal cancer TK-10 cell line was reported; type: functional; conditions: Homo sapiens, read-out: Log LC50 (the source's name) (converted)

Compound | CC50 [µM]
O=C(Nc1cccc2nsnc12)c1cc2c(cc1Cl)Sc1nccn1S2(=O)=O | 50.1

tested on: TK-10; assay: In vitro total growth inhibition against renal cancer TK-10 cell lines was reported.; type: functional; conditions: Homo sapiens, read-out: Log TGI (converted)

Compound | TGI [µM]
O=C(Nc1cccc2nsnc12)c1cc2c(cc1Cl)Sc1nccn1S2(=O)=O | 22.9

tested on: RXF 393; assay: Log of molar concentration leading to 50% cell death against renal cancer RXF 393 cell line was reported; type: functional; conditions: Homo sapiens, read-out: Log LC50 (the source's name) (converted)

Compound | CC50 [µM]
O=C(Nc1cccc2nsnc12)c1cc2c(cc1Cl)Sc1nccn1S2(=O)=O | 56.2
